Source: patent US9725518B2, “Antibodies that bind to Jagged 1” (Cancer Research Technology Limited, priority 2013, dated 2017)

How the values were obtained:
[1] = system: murine Hes1 (N1 signalling mediated via mJ1); test: Hes1 qPCR in B16F10 cells stably expressing murine J1; assay type: cell-based, mouse; conditions: mAb 10 μg/ml, DBZ 100 nM, 7 days
Method: FIG. 10. […] (A) Mouse melanoma B16F10 cells stably expressing murine J1 were cultured with 10 μg/ml of each J1 mAb, or an IgG1 control antibody, for 7 days with fresh mAb supplemented every 2 days. The γ-secretase inhibitor DBZ (100 nM) was used as a control for Notch inhibition. Cells were harvested, total RNA extracted and cDNA was synthesised. Murine Hes1 expression levels were detected by real-time PCR normalised against GAPDH. […] (B) Human breast cancer (MDA-MB-231) and primary endothelial cells (HUVEC) were cultured over plates coated with recombinant rat Jagged1 (rrJag1-Fc) or a control protein (mIgG1) in the presence of 10 μg/ml of J1 mAbs or isotype control Ab. 24 hours later cells were harvested, total RNA extracted and cDNA was synthesised. Expression of the human Notch-target genes HES1 and HEY2 was analysed by real-time PCR and β2-microglobulin was used as control gene. Results from one representative experiment are shown. […]
Total RNA from cell cultures/spheroids was isolated using RNeasy mini kit (Qiagen, UK) according to the manufacturer's instructions. […] Quantitative PCR (qPCR) analysis was performed in triplicate using the SYBR GreenER qPCR SuperMix Universal (Invitrogen) and Chromo4 fluorescence detector (MJ Research, USA). Relative quantification was done using the ΔΔCt method normalizing to β2-microglobulin gene or murine β-Actin expression. […]

[2] = system: J1-induced Notch signalling; test: Luciferase assay, LS174T RBPJ reporter stimulated with J1 protein; assay type: cell-based, human
Method: FIG. 9. […] (A) The colorectal cancer cell line LS174T expressing luciferase under the control of Notch co-factor RBPJ was stimulated with mammalian cell-expressed soluble J1 proteins (NE3-Fc and NE12-Fc) or a control protein in the presence of J1 mAbs (10 μg/ml), and luciferase activity was measured. […] (C) Breast cancer MDA-MB-231 cells were cultured with J1 mAbs. The expression level of the Notch target gene HES1 was measured by qPCR using β2m as the control gene. In all experiments the γ-secretase inhibitor DBZ was used as a positive control for pan Notch inhibition and a control mAb (IgG2b or IgG1) or no treatment (NT) were negative controls.
FIG. 20. Inhibition of human Jagged 1/Notch signalling by humanised and de-immunised J1-mAbs in vitro. The colorectal cancer cell line LS174T expressing luciferase under the control of Notch co-factor RbPJ was stimulated with mammalian cell-expressed recombinant J1 protein (NE3-Fc protein, right bar for each treatment) or a control protein (left bar) in the presence of J1 mAbs (10 μg/ml), and luciferase activity was measured. The parental murine monoclonal antibody (Mo), Murine IgG1, DMSO and DBZ were used as controls.
Having established that the J1 mAbs were able to block the binding of the J1 ligand to its receptor N1 their effect on the activity of the Notch signalling pathway was investigated. The human colorectal cancer cell line LS174T, stably expressing a luciferase reporter gene under control of Notch co-factor RBPJ, was stimulated with two forms of immobilised J1 protein: N-terminus to EGF3 and N-terminus to EGF12. […] Importantly, the best two J1 mAbs (J1-65D and J1-183D) were also tested against other Notch ligands in order to verify ligand specificity.
Prior to experiment, clear bottom 96-well plates (CELLSTAR) wells were coated with either J1-ECD fragments (NE3-Fc and NE12-Fc), other Notch-ligands (J2 or DLL4; both from R&D) or control protein (mlgG2b) at the concentration of 5 μg/ml in 0.1% BSA-PBS (overnight incubation at 4° C.). LS174T colorectal cancer cells, expressing the luciferase gene under control of the Notch cofactor RbPJ, were then plated (4×10^4 cells/well) in the presence of different mAbs (10 μg/ml) or DBZ (100 nM). Luciferase activity was then quantified 24 hours later using the Bright-Glo Luciferase Assay System (Promega).

inhibition of J1-induced luciferase activity ([2]; NE3-Fc and NE12-Fc, mAbs 10 μg/ml, DBZ 100 nM): blocked
inhibition of J1-induced luciferase activity ([2]; humanised/chimeric mAbs 10 μg/ml, NE3-Fc, DBZ control): blocked
SMILES: C[C@H](NC(=O)Cc1cc(F)cc(F)c1)C(=O)N[C@@H]1C(=O)N(C)c2ccccc2-c2ccccc21 [DBZ, reference compound]
repression of murine Hes1 expression [1]: Repression of Hes1 expression was observed
